ChEMBL document CHEMBL1158209, “Sindurol and Nephthoside: New Tetraprenyltoluquinols from the Soft Coral Sinularia dura and Nephthea sp” (J Nat Prod, 1996)
Converted amounts (≈) assume the structure as drawn.

Tested on: P388
Assay: Cytotoxicity against mouse P388 cells
Type: functional, cell-based

Row | SMILES | IC50 [µg/mL]
1 | CC(=O)OCC(O)(C(Cc1cc(O)c(C)cc1O)OC(C)=O)C12CCC(C)(CC(/C=C(\C)CCC=C(C)C)O1)O2 (centres undefined) [SINDUROL] | 1.2 (≈ 2.14 µM)
2 | CC(C)=CCC/C(C)=C/CC/C(C)=C/CC/C(C)=C/Cc1cc(O[C@@H]2OC[C@@H](O)[C@@H](O)[C@@H]2O)c(C)cc1O [NEPHTHOSIDE] | 2 (≈ 3.78 µM)
3 | CC(=O)O[C@@H]1CO[C@@H](Oc2cc(C/C=C(\C)CC/C=C(\C)CC/C=C(\C)CCC=C(C)C)c(O)cc2C)[C@@H](O)[C@@H]1O [NEPHTHOSIDE MANOACETATE] | 2 (≈ 3.5 µM)
4 | CC(C)=CCC/C(C)=C/CC/C(C)=C/CC/C(C)=C/Cc1cc(O)c(C)cc1O | 2 (≈ 5.04 µM)
